Experimental data from patent US11147272B2, “Pyridone compounds and agricultural and horticultural fungicides comprising the same as active ingredients” (MITSUI CHEMICALS AGRO, INC., priority 2017, dated 2021).

Legend:
Botrytis cinerea = test: Test Example B: Gray mold on tomato; details: Gray mold on tomato; class of control value
Description: Seeds of a test plant (tomato variety: Oogata Fukuju) were planted and cultivated until three to five first leaves (true leaves) appeared. In the test, the inventive compounds were dissolved into dimethyl sulfoxide-methanol mixture solution (volume ratio: 9/1), and the resultant solutions were diluted with well water to a concentration of 250 ppm to obtain the drug solutions. The drug solutions were sprayed to the test plant (2.5 ml/pot). After the drug solutions dried, a conidial suspension (4-8×10^5 conidia/ml) of Botrytis cinerea was inoculated to the plant by spraying. After the inoculation, the plant was kept in a mist chamber at room temperature of 20 to 23° C. for about 48 hours to promote the onset of disease. The degrees of disease development were investigated 2 to 3 days after the inoculation, and the effectiveness of the drug solutions was evaluated.
(§1) In Test Examples described above, the degrees of disease development were evaluated in increments of 0.05 from 0 (as no incidence of disease) to 3 (as the degree of disease development in an untreated plant group). Further, control values were calculated using the following equation based on the degree of disease development.
(§2) n=Degree of disease development in each treated group
In the table, H: more than 50% control value, L: 50% or less control value, and nt: not tested.

Phytophthora infestans = test: whole plant or invertebrate; assay type: in vivo; details: Late blight on tomato; class of control value
[1] = test system: Blumeria graminis f. sp. hordei; test: Test Example D: Powdery mildew on barley; details: Powdery mildew on barley; class of control value
Description: Seeds of a test plant (barley variety: Akashinriki) were planted and cultivated until the first leaves appeared. In the test, the inventive compounds were dissolved into dimethyl sulfoxide-methanol mixture solution (volume ratio: 9/1), and the resultant solutions were diluted with well water to a concentration of 250 ppm to obtain the drug solutions. The drug solutions were sprayed to the test plant (2.5 ml/pot). After the drug solutions dried, conidia of Blumeria graminis f. sp. hordei were inoculated to the plant by shaking off. The degrees of disease development were investigated 6 to 10 days after the inoculation, and the effectiveness of the drug solutions was evaluated.
as §1, §2

[2] = test system: Colletotrichum orbiculare; test: Test Example H: Anthracnose on cucumber; details: Anthracnose on cucumber (Sagami Hanjiro); 250 ppm spray, 2.5 ml/pot; assessed 6 to 10 days after inoculation
Plasmopara viticola = test: Test Example G: Downy mildew on vine; details: Downy mildew on vine (Neomuscat); 250 ppm spray, 2.5 ml/pot; assessed 7 to 10 days after inoculation
Magnaporthe grisea = test: whole plant or invertebrate; assay type: in vivo; details: Blast on rice; class of control value
Puccinia recondita = test: Test Example E: Brown rust on wheat; assay type: in vivo; details: Brown rust on wheat; class of control value
Alternaia brassicicola = test: Test Example C: Alternaria sooty spot on cabbage; assay type: in vivo; details: Alternaria sooty spot on cabbage; class of control value
Text: Seeds of a test plant (cabbage variety: Shikidori) were planted and cultivated until the cotyledons extended.
<Control Value> Control value=100{1−(n/3)}

Row | Structure (SMILES) | Test B control value class (Botrytis cinerea) | Test F control value class (Phytophthora infestans) | Test D control value class [1] | Test H control value class [2] | Test G control value class (Plasmopara viticola) | Test A control value class (Magnaporthe grisea) | Test E control value class (Puccinia recondita) | Test C control value class (Alternaia brassicicola)
1 | Cn1c(-c2c(F)cc(F)cc2F)c(C(C)(C)C)cc(Br)c1=O [compound 78] | H (more than 50% control value) | L (50% or less control value) | H (more than 50% control value) | H (more than 50% control value) | L (50% or less control value) | H (more than 50% control value) | H (more than 50% control value) | H (more than 50% control value)
2 | COc1cc(F)c(-c2c(C(C)(C)C)cc(Cl)c(=O)n2C)c(F)c1 [compound 79] | H (more than 50% control value) | L (50% or less control value) | H (more than 50% control value) | H (more than 50% control value) | L (50% or less control value) | H (more than 50% control value) | H (more than 50% control value) | H (more than 50% control value)
3 | CCn1c(-c2c(F)cccc2F)c(CN(C)C(C)C)cc(Cl)c1=O [compound 80] | H (more than 50% control value) | H (more than 50% control value) | L (50% or less control value) | H (more than 50% control value) | L (50% or less control value) | L (50% or less control value) | L (50% or less control value) | L (50% or less control value)
4 | CCn1c(-c2c(F)cc(F)cc2F)c(C(OC)N(C)C(C)C)cc(Cl)c1=O (stereo not drawn) [compound 81] | H (more than 50% control value) | L (50% or less control value) | L (50% or less control value) | L (50% or less control value) | L (50% or less control value) | H (more than 50% control value) | L (50% or less control value) | L (50% or less control value)
5 | COc1cc(F)c(-c2c(C(C)(C)C)cc(Br)c(=O)n2C)c(F)c1 [compound 82] | H (more than 50% control value) | L (50% or less control value) | L (50% or less control value) | H (more than 50% control value) | H (more than 50% control value) | L (50% or less control value) | H (more than 50% control value) | H (more than 50% control value)
6 | CCn1c(-c2c(F)cc(OCCOC)cc2F)c(C(C)(C)C)cc(Cl)c1=O [compound 83] | H (more than 50% control value) | L (50% or less control value) | L (50% or less control value) | H (more than 50% control value) | H (more than 50% control value) | H (more than 50% control value) | H (more than 50% control value) | H (more than 50% control value)
